Measured values taken from US20130143869A1, “USE OF A CATIONIC AMPHIPHILIC DRUG FOR THE PREPARATION OF A FORMULATION FOR THE REDUCTION OF SUBCUTANEOUS ADIPOSE TISSUE” (Merz Pharma GmbH & CO. KGaA, priority 2010, published 2013).
Structures can show the parent of a compound that is named as a salt.

What was measured:
[1] = tested on: human adipocyte cells; assay: Membrane integrity: LDH release from human adipocytes (LDH assay); type: cell-based; settings: for IC50: read-out: IC50 48 hrs LDH; for Rel. max. LDH release [%] 48 hrs: Example 1, 48 hrs, relative to Triton-x 100 maximal LDH release
Description: (§1) HWP were obtained in passage two and differentiated in vitro to mature adipocytes. Briefly, cells were initially cultured in preadipocyte growth medium at 37° C. and 5% CO2 to 70-80% confluency. Then, cells were seeded at 40,000 cells/ml into 96-well flat bottom tissue culture plates and incubated overnight to allow attachment. Differentiation was initiated by changing the medium to preadipopcyte differentiation medium for an additional 72 hrs. After differentiation was induced, the medium was replaced by adipocyte nutrition medium that was refreshed every 2-3 days over a period of 14 days until termination of differentiation. Differentiation status was checked via nile red staining of control cells.
(§2) For the cytotoxicity assays in this study pre-adipocytes were seeded at 40,000 cells/ml into a 96-well microtiter flat bottom plate. The test items were prepared in separate plates starting with the double concentrated maximal test concentration followed by a 1:2 serial dilution (Chloroquine and Fluoxetine 1:3) and then added to the cells. The test items were tested at 6 replicates/concentration. Each plate included negative controls (media plus solvent, 6 replicates), a drug interference control (all concentrations, duplicates), a background control (14 replicates), a positive (=cytotoxic) control (6 replicates doxorubicin, 1 μM final) and a positive control for maximal LDH-release (2 replicates, 2% Triton-x 100 final).
(§3) Relative cell viability was determined after 48 hrs exposure based on metabolic activity (i.e. resazurin conversion). Using a Victor^3 1420 Multilabel Counter, the resazurin conversion to the fluorescent resorufin by metabolically active cells was recorded at 560Ex/590Em. Membrane integrity was measured after 6 hrs and 48 hrs and the enzymatic activity of released LDH in the cell supernatant after 30 min of incubation at 492 nmabsorption/690 nmreference by a spectrophotometer. The volume withdrawn from the cultures for the LDH-assay was not replaced to keep cells in a less disturbed environment. The assay was conducted in a multiplexed format.
For the dose-response relationship, absolute absorption (OD treated wells−background) was plotted against the test item concentrations representing LDH leakage from the cells. For a better estimation of the test items' potential influencing the membrane integrity, relative, maximal LDH release in percent (see Table 2) was also calculated according to the following formula: […]
(§4) The effects on cytotoxicity in human adipocyte cells of a further 9 compounds were tested. The experimental set-up was identical to the one in example 1.

[2] = tested on: human adipocyte cells; assay: Cytotoxicity assay: metabolic activity (resazurin conversion) of human adipocytes; type: cell-based
Description: as §1
The test items 1 to 8 were prepared according to Table 1 to yield respective stock solutions. Said stock solutions were further diluted in assay media to obtain the double concentrated working solutions, which were subsequently diluted 1:2 in the final assay. […] Deoxycholate Na was selected as “reference compound”.
as §2, §3
In order to derive meaningful IC50 values from the primary data, the entire biological window of activity ranging from 0% to 100% viability should be covered and the resolution has to be sufficient. To improve data quality, the serial dilution factor used in previous experiments was reduced to a 1:2 and 1:3 dilution. […] IC50 (half maximal inhibitory concentration, calculated via Sigma Plot 10) values were determined for each test substance 1 to 8.
as §4

[3] = tested on: Human white adipocytes; assay: Apoptosis/necrosis detection, Annexin V-FITC/PI flow cytometry; type: cell-based; settings: for apoptosis/necrosis induction in human adipocytes (in words): 5, 24, 48 hrs, concentrations as in Table 4
Text: The apoptotic program is characterized by certain morphologic features. Loss of plasma membrane asymmetry is a well established indicator for apoptotic cells. In apoptotic cells, the membrane phospholipid phosphatidylserine (PS) is translocated from the inner to the outer leaflet of the plasma membrane, thereby exposing PS to the external environment. In general, this PS translocation is preceded by caspase activation. Annexin V labelled with FITC is a Ca^2+ dependent phospholipid-binding protein with high affinity for PS and binds to cells with externalized PS. Cells stained with Annexin V*FITC are therefore considered in an early apoptotic stage.
Staining with Annexin V-FITC is typically used in conjunction with a vital dye such as propidium iodide (PI) to allow discrimination between early apoptotic and necrotic cells. Necrotic dying cells are PI positive only. Cells that are viable are Annexin V and PI negative; cells that entered apoptosis are Annexin V positive and PI negative and cells that are in post apoptotic and/or necrotic phase are both Annexin V and PI positive.
Human white adipocytes that had been differentiated in vitro from pre-adipocytes as describe above were used. Measurements were performed after 5 hrs to catch early apoptotic/necrotic events and after 24 hrs and 48 hrs for later stages. Naringenin at 500 μM (reported to induce apoptosis in adipocytes) was used as positive control and media plus solvent was used as negative control. Each compound was tested in three different concentrations. […] Two more concentrations, one below and one above the IC50 were added.
Flow cytometry was performed with a dual laser FC500. After completion of the staining procedure, tubes were grouped into a FC500 carousel for semi-automated data acquisition. Cells were first acquired in “Setup” mode to tune the parameters FS, SS, FL1 and FL2. After completion of the setup, baseline compensation was switched on and cells were acquired. Cells were acquired without life-gate but using FS threshold to exclude debris. All cells were acquired using individually corrected settings.
After completion of data acquisition, analysis was done using the CXP software. If necessary, software-based post acquisition compensation was performed to fine-correct for fluorescence overlap not adjusted for during the acquisition phase. Quadrant markers were set based on the negative controls.

[4] = tested on: subcutaneous fat-tissue; settings: rats
[5] = Homo sapiens, Adipocyte, read-out: IC50 (metabolic activity after 48 hrs), Example 1, 48 hrs exposure, resazurin
[6] = 1 mg/mL, 300 μL s.c. Day 1, 7, 28, histology day 29

For `Fc1ccc([C@@H]2CCNC[C@H]2COc2ccc3c(c2)OCO3)cc1` [Paroxetine], the IC50 ([1]; Homo sapiens, Adipocyte, Example 2, 48 hrs) was ~31.2 µM and the IC50 ([2]; Homo sapiens, Adipocyte, read-out: IC50 48 hrs Resazurin, Example 2, 48 hrs) was 39.3 µM.

In the case of `C[C@H](CCC(=O)[O-])[C@H]1CC[C@H]2[C@@H]3CC[C@@H]4C[C@H](O)CC[C@]4(C)[C@H]3C[C@H](O)[C@]12C.[Na+]` [Test substance 8, Deoxycholate Na], the “Rel. max. LDH release [%] 48 hrs” value [1] is reported as 98.0%, the IC50 ([1]; Example 2, 48 hrs) is reported as ~379 µM and the IC50 ([2]; read-out: IC50 48 hrs Resazurin, Example 2, 48 hrs, listed as Deoxycholate) is reported as ~616 µM. It also gave an IC50 ([2]; read-out: IC50 48 hrs Resazurin, Example 2, 48 hrs, listed as deoxycholate) of 616 µM and an IC50 ([2]; read-out: IC50 (metabolic activity after 48 hrs), Example 1, 48 hrs exposure, resazurin) of 446 µM.

`CN(C)CCCC1(c2ccc(F)cc2)OCc2cc(C#N)ccc21` (stereo not drawn) [Test substance 2, Citalopram HBr] was tested, and the “Early Apoptosis [A-V*/PI*]” value ([3]; 250 μM, 5 hrs) was 21.5, the “Necrosis/ Late Apoptosis [A-V*/PI*]” value ([3]; 250 μM, 5 hrs) was 0.6 and the “Normal [A-V*/PI]” value ([3]; 250 μM, 5 hrs) was 77.9. For the same molecule, the “Early Apoptosis [A-V*/PI*]” value ([3]; 250 μM, 24 hrs) was 32.4, the “Necrosis/ Late Apoptosis [A-V*/PI*]” value ([3]; 250 μM, 24 hrs) was 2.2 and the “Normal [A-V*/PI]” value ([3]; 250 μM, 24 hrs) was 65.4. For the same molecule, the “Early Apoptosis [A-V*/PI*]” value ([3]; 250 μM, 48 hrs) was 23.1, the “Necrosis/ Late Apoptosis [A-V*/PI*]” value ([3]; 250 μM, 48 hrs) was 3.3 and the “Normal [A-V*/PI]” value ([3]; 250 μM, 48 hrs) was 79.6. The “Early Apoptosis [A-V*/PI*]” value ([3]; 350 μM, 5 hrs) was 31.3, the “Necrosis/ Late Apoptosis [A-V*/PI*]” value ([3]; 350 μM, 5 hrs) was 1.5 and the “Normal [A-V*/PI]” value ([3]; 350 μM, 5 hrs) was 67.2. The “Early Apoptosis [A-V*/PI*]” value ([3]; 350 μM, 24 hrs) was 57.6, the “Necrosis/ Late Apoptosis [A-V*/PI*]” value ([3]; 350 μM, 24 hrs) was 4.7 and the “Normal [A-V*/PI]” value ([3]; 350 μM, 24 hrs) was 37.7. The “Early Apoptosis [A-V*/PI*]” value ([3]; 350 μM, 48 hrs) was 35.6, the “Necrosis/ Late Apoptosis [A-V*/PI*]” value ([3]; 350 μM, 48 hrs) was 10.7 and the “Normal [A-V*/PI]” value ([3]; 350 μM, 48 hrs) was 53.7. For the same molecule, the “Early Apoptosis [A-V*/PI*]” value ([3]; 450 μM, 5 hrs) was 30.5, the “Necrosis/ Late Apoptosis [A-V*/PI*]” value ([3]; 450 μM, 5 hrs) was 1.1 and the “Normal [A-V*/PI]” value ([3]; 450 μM, 5 hrs) was 68.4. For the same molecule, the “Early Apoptosis [A-V*/PI*]” value ([3]; 450 μM, 24 hrs) was 26, the “Necrosis/ Late Apoptosis [A-V*/PI*]” value ([3]; 450 μM, 24 hrs) was 23.9 and the “Normal [A-V*/PI]” value ([3]; 450 μM, 24 hrs) was 50.1. The “Early Apoptosis [A-V*/PI*]” value ([3]; 450 μM, 48 hrs) was 44.9, the “Necrosis/ Late Apoptosis [A-V*/PI*]” value ([3]; 450 μM, 48 hrs) was 26 and the “Normal [A-V*/PI]” value ([3]; 450 μM, 48 hrs) was 29.1. For the same molecule, the “apoptosis/necrosis induction in human adipocytes (in words)” value [3] was “clear apoptosis after 5 hrs with virtually no necrosis”, the “Rel. max. LDH release [%] 48 hrs” value [1] was 100.7% and the IC50 [2, 5] was 431 µM.

In the case of `CCN(CC)CCCC(C)Nc1ccnc2cc(Cl)ccc12` (stereo not drawn) [Test substance 1, Chloroquine], the “Rel. max. LDH release [%] 48 hrs” value [1] is reported as 101.8% and the IC50 ([2]; Homo sapiens, Adipocyte, 48 h, read-out: IC50 (metabolic activity after 48 hrs)) is reported as 599 µM.

In the case of `CNCCC(Oc1ccc(C(F)(F)F)cc1)c1ccccc1` (stereo not drawn) [Test substance 4, Fluoxetine HCl], the “primary mode of cell death” value [3] is reported as “fast and strong apoptosis induction”, the “Early Apoptosis [A-V*/PI*]” value ([3]; 40 μM, 5 hrs) is reported as 26.9 and the “Necrosis/ Late Apoptosis [A-V*/PI*]” value ([3]; 40 μM, 5 hrs) is reported as 0. The “Necrosis/ Late Apoptosis [A-V*/PI*]” value ([3]; 40 μM, 24 hrs) was 2.6, the “Normal [A-V*/PI]” value ([3]; 40 μM, 24 hrs) was 49.9 and the “Early Apoptosis [A-V*/PI*]” value ([3]; 40 μM, 48 hrs) was 22.7. The “Necrosis/ Late Apoptosis [A-V*/PI*]” value ([3]; 40 μM, 48 hrs) was 7.7, the “Early Apoptosis [A-V*/PI*]” value ([3]; 60 μM, 5 hrs) was 58.5 and the “Necrosis/ Late Apoptosis [A-V*/PI*]” value ([3]; 60 μM, 5 hrs) was 1.3. The “Normal [A-V*/PI]” value ([3]; 60 μM, 5 hrs) was 45.2, the “Early Apoptosis [A-V*/PI*]” value ([3]; 60 μM, 24 hrs) was 78.7 and the “Necrosis/ Late Apoptosis [A-V*/PI*]” value ([3]; 60 μM, 24 hrs) was 5.5. For the same molecule, the “Normal [A-V*/PI]” value ([3]; 60 μM, 24 hrs) was 14.7, the “Early Apoptosis [A-V*/PI*]” value ([3]; 60 μM, 48 hrs) was 37.9 and the “Necrosis/ Late Apoptosis [A-V*/PI*]” value ([3]; 60 μM, 48 hrs) was 19.8. For the same molecule, the “Normal [A-V*/PI]” value ([3]; 60 μM, 48 hrs) was 42.3, the cells apoptotic ([3]; 80 μM, 5 h) was “more than 50%” and the “Necrosis/ Late Apoptosis [A-V*/PI*]” value ([3]; 80 μM, 5 hrs) was 1.6. The “Normal [A-V*/PI]” value ([3]; 80 μM, 5 hrs) was 47, the “Early Apoptosis [A-V*/PI*]” value ([3]; 80 μM, 24 hrs) was 41.9 and the “Necrosis/ Late Apoptosis [A-V*/PI*]” value ([3]; 80 μM, 24 hrs) was 44.1. For the same molecule, the “Normal [A-V*/PI]” value ([3]; 80 μM, 24 hrs) was 14, the “Necrosis/ Late Apoptosis [A-V*/PI*]” value ([3]; 80 μM, 48 hrs) was 42.2 and the “Normal [A-V*/PI]” value ([3]; 80 μM, 48 hrs) was 2.7. For the same molecule, the “apoptosis/necrosis induction in human adipocytes (in words)” value [3] was “rapidly induced strong apoptosis”, the “Rel. max. LDH release [%] 48 hrs” value [1] was 101.0% and the “degree of histological changes at administration sites (subcutaneous connective and/or adipose tissue)” value [4, 6] was “minimal or mild in degree”. The “edema at administration sites” value [4, 6] was “minimal or mild”, the “fibrosis at administration sites” value [4, 6] was “minimal or mild” and the “haemorrhage at administration sites” value [4, 6] was “minimal or mild”. For the same molecule, the “infiltrates of granulocytes at administration sites” value [4, 6] was “minimal”, the “infiltrates of mononuclear cells at administration sites” value [4, 6] was “minimal to moderate” and the “single cell death of inflammatory cells and/or connective tissue at administration sites” value [4, 6] was “minimal”. The “adipocytolysis (concluded from inflammatory reaction)” value ([4]; repetitive s.c. injection) was “causes adipocytolysis” and the IC50 [2, 5] was 52 µM.

For `CC(CCc1ccccc1)NCC(O)c1ccc(O)c(C(N)=O)c1` (stereo not drawn) [Test substance 7, Labetalol HCl], the “Rel. max. LDH release [%] 48 hrs” value [1] was 101.1% and the IC50 [2, 5] was 659 µM.

`CNCC[C@H](Oc1cccc2ccccc12)c1cccs1` [Duloxetine] was tested, and the IC50 ([1]; Homo sapiens, Adipocyte, 48 h) was ~31.9 µM and the IC50 ([2]; Homo sapiens, Adipocyte, 48 h, read-out: IC50 48 hrs Resazurin) was 42.9 µM.
